Data reported in article PMC8741576 (Molecular Diversity, 2022).

Key:
[1] = system: LN-229 glioblastoma cells; assay: Antiproliferative screening, MTS cell viability assay; assay type: cell-based; conditions: Homo sapiens, LN-229, 72 h, read-out: IC50 LN-229
[2] = system: Capan-1 pancreatic adenocarcinoma cells; assay: as above; assay type: cell-based; conditions: Homo sapiens, CAPAN-1, 72 h, read-out: IC50 Capan-1
[3] = system: HCT-116 colorectal carcinoma cells; assay: as above; assay type: cell-based; conditions: Homo sapiens, HCT-116, 72 h, read-out: IC50 HCT-116
[4] = system: NCI-H460 lung carcinoma cells; assay: as above; assay type: cell-based; conditions: Homo sapiens, NCI-H460, 72 h, read-out: IC50 NCI-H460
[5] = system: DND-41 acute lymphoblastic leukemia cells; assay: Antiproliferative screening, IncuCyte cell growth; assay type: cell-based; conditions: Homo sapiens, DND41, 72 h, read-out: IC50 DND-41
[6] = system: HL-60 acute myeloid leukemia cells; assay: Antiproliferative screening, IncuCyte cell growth; assay type: cell-based; conditions: Homo sapiens, HL-60, 72 h, read-out: IC50 HL-60
[7] = system: K-562 chronic myeloid leukemia cells; assay: Antiproliferative screening, IncuCyte cell growth; assay type: cell-based; conditions: Homo sapiens, K562, 72 h, read-out: IC50 K-562
[8] = system: Z-138 non-Hodgkin lymphoma cells; assay: Antiproliferative screening, IncuCyte cell growth; assay type: cell-based; conditions: Homo sapiens, Z-138, 72 h, read-out: IC50 Z-138
human coronavirus 229E = conditions: HEL cell culture
in vitro = conditions: human
[9] = system: HEL 299 normal human lung fibroblasts; assay: Antiproliferative screening on noncancerous cells; conditions: for IC50: Homo sapiens, HEL 299, read-out: IC50 HEL 299

SMILES	IC50 [1] [µM]	IC50 [2] [µM]	IC50 [3] [µM]	IC50 [4] [µM]	IC50 [5] [µM]	IC50 [6] [µM]	IC50 [7] [µM]	IC50 [8] [µM]	SI, selectivity index (CC50 to EC50 ratio) 229E (human coronavirus 229E)	CC50 (in vitro) [µM]	IC50 [9] [µM]	Cytotoxicity against noncancerous cells in words ([9]; HEL 299)
Nc1ccccc1C(=O)NCCCCNc1ccnc2ccccc12 [Compound 11, 2-Amino-N-[4-(quinolin-4-ylamino)butyl]benzamide]	39.7 ± 4.4	62.2 ± 9.7	45.4 ± 4.9	87.4 ± 12.6	59.6 ± 1.7	44.7 ± 11	18.7 ± 6.7	31.2 ± 1.1	6.0	46.3 ± 1.2	41.6 ± 1.2	
O=C(NCCCCNc1ccnc2ccccc12)c1ccccc1NCc1ccccc1 [Compound 10, 2-(Benzylamino)-N-[4-(quinolin-4-ylamino)butyl]benzamide]	3 ± 2	4.2 ± 3.4	7.4 ± 1.5	2.2 ± 0.8	8 ± 3.2	14.9 ± 7.3	5.9 ± 3.5	4.6 ± 2	> 7	5.6 ± 3	33.6 ± 15.6	
CC(C)(C)OC(=O)Nc1ccc(Br)cc1C(=O)NCCCCNc1ccnc2cc(Cl)ccc12 [Compound 3, tert-Butyl {4-bromo-2-[[4-[(7-chloroquinolin-4-yl)amino]butyl]carbamoyl]phenyl}carbamate]	48.4 ± 20	40.6 ± 4.2	66.1 ± 30	69.3 ± 30.7	51.3 ± 4.4	60.5 ± 17	51.2 ± 9.3	55.2 ± 9.2			> 100	no cytotoxicity against noncancerous cells
N#C[C@@]1(c2ccc3c(N)ncnn23)O[C@H](CO)[C@@H](O)[C@H]1O [GS-441524]										> 100		
COc1cc(NC(C)CCCNC(=O)c2cc(Br)ccc2NC(=O)OC(C)(C)C)c2ncccc2c1 (stereo not drawn) [Compound 6, tert-Butyl {4-bromo-2-[[4-[(6-methoxyquinolin-8-yl)amino]pentyl]carbamoyl]phenyl}carbamate]	> 100	> 100	> 100	> 100	> 100	> 100	> 100	> 100			> 100	
COc1cc(NC(C)CCCNC(=O)c2ccc(Cl)cc2NC(=O)OC(C)(C)C)c2ncccc2c1 (stereo not drawn) [Compound 5, tert-Butyl {5-chloro-2-[[4-[(6-methoxyquinolin-8-yl)amino]pentyl]carbamoyl]phenyl}carbamate]	> 100	> 100	> 100	> 100	> 100	> 100	> 100	> 100			> 100	
COc1cc(NC(C)CCCNC(=O)c2ccc(Cl)cc2N)c2ncccc2c1 (stereo not drawn) [Compound 15, 2-Amino-4-chloro-N-{4-[(6-methoxyquinolin-8-yl)amino]pentyl}benzamide]	> 100	> 100	> 100	> 100	> 100	> 100	> 100	> 100			> 100	
COc1cc(NC(C)CCCNC(=O)c2ccccc2NCc2ccccc2)c2ncccc2c1 (stereo not drawn) [Compound 4, 2-(Benzylamino)-N-{4-[(6-methoxyquinolin-8-yl)amino]pentyl}benzamide]	> 100	> 100	> 100	> 100	> 100	> 100	> 100	> 100			> 100	
Cc1nc(CNC(=O)c2cc(Br)ccc2NC(=O)OC(C)(C)C)cc2c1[nH]c1ccccc12 [Compound 9, tert-Butyl {4-bromo-2-[[(1-methyl-9H-pyrido[3,4-b]indol-3-yl)methyl]carbamoyl]phenyl}carbamate]	8.3 ± 3.1	5.8 ± 3	32.9 ± 7.9	3.2 ± 1.8	12.5 ± 6.9	10.8 ± 3.3	63.1 ± 36.9	4.1 ± 1.8			7.5 ± 1	
